Measurements from patent US7220775B2, “Compound useful for the treatment of neuropathic pain” (H. Lundbeck A/S, priority 2002, dated 2007).

Key:
[1] = biological target: T1, human α2A adrenoceptor (Homo sapiens, UniProt P08913); assay: α2A adrenergic receptor binding; details: Table 10
T1 construct: expressed in transfected cells
Description: (§1) Other receptors: Cell membranes expressing human dopamine D1, D2, D4 and rat D3 receptors were purchased through BioSignal, Inc. (Montreal, Canada). Binding assays using the histamine H, receptor; dopamine receptors; and α1A, α1B, and α2 adrenergic receptors may be carried out according to the procedures described in U.S. Pat. No. 5,780,485, the disclosure of which is hereby incorporated by reference in its entirety into this application. Binding assays using the dopamine D5 receptor may be carried out according to the procedures described in U.S. Pat. No. 5,882,855, the disclosure of which is hereby incorporated by reference in its entirety into this application. Binding assays for the human α1D adrenergic receptor may be carried out according to the procedures described in U.S. Pat. No. 6,156,518, the disclosure of which is hereby incorporated by reference in its entirety into this application.

[2] = biological target: T2, Human 5HT1D receptor (Homo sapiens, UniProt P28221); assay: 5HT1D receptor binding ([3H]-serotonin); details: Table 8
T2 construct: expressed in transfected cells
T2 sequence (P28221 whole entry): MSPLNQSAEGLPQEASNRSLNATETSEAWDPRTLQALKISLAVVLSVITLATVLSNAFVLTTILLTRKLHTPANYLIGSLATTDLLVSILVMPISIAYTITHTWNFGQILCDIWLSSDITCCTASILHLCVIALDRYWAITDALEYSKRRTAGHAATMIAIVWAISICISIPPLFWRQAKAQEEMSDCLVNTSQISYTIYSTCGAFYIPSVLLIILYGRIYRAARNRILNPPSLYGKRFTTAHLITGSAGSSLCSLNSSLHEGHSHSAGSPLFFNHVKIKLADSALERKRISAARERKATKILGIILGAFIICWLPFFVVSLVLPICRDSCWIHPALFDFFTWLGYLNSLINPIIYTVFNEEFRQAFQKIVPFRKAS
Protocol: (§2) Human 5HT1B, 5HT1D, 5HT1E, 5HT1F, and 5HT7 Receptors: The cell lysates of LM(tk−) clonal cell line stably transfected with the genes encoding each of these 5HT receptor-subtypes were prepared as described above. Cell membranes were suspended in 50 mM Tris-HCl buffer (pH 7.4 at 37° C.) containing 10 mM MgCl2, 0.2 mM EDTA, 10 µM pargyline, and 0.1% ascorbate. […] Nonspecific binding was determined in the presence of 10 μM serotonin. The bound radioligand was separated by filtration through GF/B filters using a cell harvester.

[3] = biological target: T3, human α2C adrenoceptor (Homo sapiens, UniProt P18825); assay: α2C adrenergic receptor binding; details: Table 10
T3 construct: expressed in transfected cells
T3 sequence (P18825 whole entry): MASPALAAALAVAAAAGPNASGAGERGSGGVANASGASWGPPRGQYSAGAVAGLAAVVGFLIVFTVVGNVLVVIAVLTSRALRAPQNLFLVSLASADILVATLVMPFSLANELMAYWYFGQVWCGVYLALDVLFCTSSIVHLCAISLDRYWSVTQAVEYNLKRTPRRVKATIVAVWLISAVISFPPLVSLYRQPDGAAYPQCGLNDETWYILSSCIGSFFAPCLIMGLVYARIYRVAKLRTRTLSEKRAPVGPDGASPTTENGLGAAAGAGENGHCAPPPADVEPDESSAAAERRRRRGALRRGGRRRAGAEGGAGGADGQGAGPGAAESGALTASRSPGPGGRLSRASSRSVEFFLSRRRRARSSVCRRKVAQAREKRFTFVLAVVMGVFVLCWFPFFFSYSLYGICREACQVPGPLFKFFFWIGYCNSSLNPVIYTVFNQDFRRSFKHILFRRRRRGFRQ
Description: as §1

[4] = system: neuropathic rats (chronic constriction nerve injury); assay: Chronic constriction nerve injury model of neuropathic pain: thermal hyperalgesia (Thermal Plantar Test); format: in vivo, rat
Protocol: The aim of this study was to assess the potential analgesic effects of Example 92 following intraperitoneal administration at the doses of 3, 10 and 30 mg/kg, respectively, in an animal model of neuropathic pain. A peripheral mononeuropathy was induced in the right hind limb of rats following a chronic constriction nerve injury (Bennett and Xie, 1988), and the development of mechanical allodynia and thermal hyperalgesia was monitored using established behavioral tests (Attal, N., et al., 1990; Hargreaves, K., et al., 1988).
Male Sprague-Dawley rats within the weight range of 200-225 g, and approximate age 7-9 weeks, were allowed to acclimate for a minimum of 6 days prior to the start of the behavioral testing.
All rats underwent a chronic constriction nerve injury, and of these, those that successfully developed allodynia and hyperalgesia were allocated to treatment groups.
There were 5 separate treatment groups (with a minimum of 10 rats per group). The treatment groups were as follows: • Group C received Morphine at 10 mg/kg (n=10) • Group D received Vehicle for Example 92* at 1 ml/kg (n=10) (* 100% DMSO) • Group E received Example 92 at 30 mg/kg (n=10) • Group F received Example 92 at 3 mg/kg (n=10) • Group G received Example 92 at 10 mg/kg (n=10)
The dose volume for all treatments was 1 ml/kg. Each rat received a single i.p. dose of the test substance, reference substance or vehicle on Day 12 PO. Test substance and vehicle dosing solutions were encoded (C-G) so that the observers were unaware of the identity of the treatment groups.
The behavioral tests (Von Frey filament and Thermal Plantar Tests—see below) were performed on all rats on 3 separate days prior to […], to establish baseline values. The pre-surgery baseline values were calculated as the mean of the last 2 days testing (the data from the first day of testing were not included as this was classed as part of the acclimating period). The sequence of tests was always mechanical allodynia (Von Frey Test) followed by thermal hyperalgesia (Thermal Plantar Test), with a minimum 5 min period allowed between the 2 tests.
Each rat was placed in a clear plastic chamber with a glass floor and allowed a short period to acclimatize to the new environment (approximately 5 min.). The animals were then challenged with a radiant Infrared (IR) heat source, directed at the plantar surface of the hind paw from below, and the withdrawal latency of both the ipsilateral and contralateral hind paws was evaluated. The infrared intensity was set at IR50 and the maximum length of exposure to the IR source was 18 s. Non-responding animals were allocated a withdrawal latency of 18 s.
The animals were surgically prepared over 5 days. […]

[5] = biological target: T4, Human 5HT1F receptor (Homo sapiens, UniProt P30939); assay: 5HT1F receptor binding ([3H]-serotonin); details: Table 8
T4 construct: expressed in transfected cells
T4 sequence (P30939 whole entry): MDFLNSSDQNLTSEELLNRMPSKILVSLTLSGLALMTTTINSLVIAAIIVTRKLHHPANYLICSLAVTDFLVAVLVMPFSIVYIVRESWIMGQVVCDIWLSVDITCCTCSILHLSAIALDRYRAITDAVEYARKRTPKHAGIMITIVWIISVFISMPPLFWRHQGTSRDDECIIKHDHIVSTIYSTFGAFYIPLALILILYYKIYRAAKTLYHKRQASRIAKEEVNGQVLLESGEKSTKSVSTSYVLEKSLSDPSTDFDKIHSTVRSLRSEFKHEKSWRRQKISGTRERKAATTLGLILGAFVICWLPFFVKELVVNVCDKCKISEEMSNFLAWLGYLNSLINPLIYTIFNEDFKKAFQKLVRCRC
Protocol: as §2

[6] = biological target: T5, Human 5HT1B receptor (Homo sapiens, UniProt P28222); assay: 5HT1B receptor binding ([3H]-serotonin); details: Table 8
T5 construct: expressed in transfected cells
T5 sequence (P28222 whole entry): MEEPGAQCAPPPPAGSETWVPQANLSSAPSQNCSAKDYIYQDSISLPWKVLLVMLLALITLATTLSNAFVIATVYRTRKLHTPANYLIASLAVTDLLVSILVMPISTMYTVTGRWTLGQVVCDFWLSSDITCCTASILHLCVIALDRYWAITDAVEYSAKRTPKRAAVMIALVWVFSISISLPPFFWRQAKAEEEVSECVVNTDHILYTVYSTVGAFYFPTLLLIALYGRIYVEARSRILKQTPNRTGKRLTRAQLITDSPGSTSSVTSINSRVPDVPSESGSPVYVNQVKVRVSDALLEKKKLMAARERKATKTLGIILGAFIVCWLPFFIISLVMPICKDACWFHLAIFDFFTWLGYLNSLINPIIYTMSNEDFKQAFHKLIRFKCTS
Protocol: as §2

[7] = biological target: T6, DA transporter (rDA Uptk) (Rattus norvegicus, UniProt P23977); assay: Binding at native DA transporter; details: Table 8
T6 construct: native, tissue-derived transporters; from tissue
T6 sequence (P23977 whole entry): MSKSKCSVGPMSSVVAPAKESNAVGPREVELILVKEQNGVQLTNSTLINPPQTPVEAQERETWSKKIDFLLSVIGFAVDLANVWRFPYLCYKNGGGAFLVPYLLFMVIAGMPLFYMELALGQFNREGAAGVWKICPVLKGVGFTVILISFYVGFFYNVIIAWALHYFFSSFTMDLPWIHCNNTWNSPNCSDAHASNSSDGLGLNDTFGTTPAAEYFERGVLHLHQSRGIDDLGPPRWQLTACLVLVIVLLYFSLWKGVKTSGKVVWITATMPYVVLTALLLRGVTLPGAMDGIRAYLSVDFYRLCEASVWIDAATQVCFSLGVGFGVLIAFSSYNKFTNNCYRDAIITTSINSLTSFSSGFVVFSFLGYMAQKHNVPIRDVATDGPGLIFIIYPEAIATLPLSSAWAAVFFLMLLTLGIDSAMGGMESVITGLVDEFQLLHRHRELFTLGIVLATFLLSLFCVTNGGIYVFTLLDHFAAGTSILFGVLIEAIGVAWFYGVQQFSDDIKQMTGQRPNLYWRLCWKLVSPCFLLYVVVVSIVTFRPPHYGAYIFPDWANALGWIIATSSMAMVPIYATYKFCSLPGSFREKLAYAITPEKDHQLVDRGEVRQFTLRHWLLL
Protocol: The binding properties of the compounds of the present invention were evaluated at one or more cloned receptors or native, tissue-derived transporters, using protocols described below.
The methods to determine binding affinity at native transporters are described in the following publications: 5HT transporter and NE transporter (Owens et al., 1997), and DA transporter (Javitch et al, 1984).

[8] = biological target: T7, human α1B adrenoceptor (Homo sapiens, UniProt P35368); assay: α1B adrenergic receptor binding; details: Table 10
T7 construct: expressed in transfected cells
T7 sequence (P35368 whole entry): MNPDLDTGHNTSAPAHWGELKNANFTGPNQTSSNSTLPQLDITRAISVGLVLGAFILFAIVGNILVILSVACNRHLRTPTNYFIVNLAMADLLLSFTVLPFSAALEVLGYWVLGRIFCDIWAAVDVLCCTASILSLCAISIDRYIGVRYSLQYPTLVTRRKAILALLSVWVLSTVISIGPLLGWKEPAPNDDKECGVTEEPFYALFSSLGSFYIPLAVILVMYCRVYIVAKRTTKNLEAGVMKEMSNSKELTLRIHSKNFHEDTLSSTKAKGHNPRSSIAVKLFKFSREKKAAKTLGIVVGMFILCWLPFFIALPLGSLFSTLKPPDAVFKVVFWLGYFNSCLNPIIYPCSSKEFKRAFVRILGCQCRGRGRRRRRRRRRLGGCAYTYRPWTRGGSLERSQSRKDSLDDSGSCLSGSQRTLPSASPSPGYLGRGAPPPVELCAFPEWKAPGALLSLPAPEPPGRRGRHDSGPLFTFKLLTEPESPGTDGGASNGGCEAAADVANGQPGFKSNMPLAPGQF
Description: as §1

[9] = biological target: T8, human dopamine D4 receptor (Homo sapiens, UniProt P21917); assay: Dopamine D4 receptor binding; details: Table 10
T8 construct: purchased BioSignal, Inc. (Montreal, Canada)
T8 sequence (P21917 whole entry): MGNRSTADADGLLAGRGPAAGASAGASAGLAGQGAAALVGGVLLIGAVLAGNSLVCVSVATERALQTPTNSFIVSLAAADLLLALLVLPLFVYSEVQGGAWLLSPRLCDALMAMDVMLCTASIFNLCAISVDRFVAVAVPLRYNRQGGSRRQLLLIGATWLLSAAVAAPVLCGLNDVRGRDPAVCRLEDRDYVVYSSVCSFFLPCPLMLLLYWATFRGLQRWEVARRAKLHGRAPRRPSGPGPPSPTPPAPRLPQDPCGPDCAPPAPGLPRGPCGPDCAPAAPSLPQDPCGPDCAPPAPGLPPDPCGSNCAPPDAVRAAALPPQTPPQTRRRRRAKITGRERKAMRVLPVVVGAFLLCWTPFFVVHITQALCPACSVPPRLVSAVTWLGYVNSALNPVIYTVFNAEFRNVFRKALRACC
Description: as §1

T1 sequence (P08913 whole entry): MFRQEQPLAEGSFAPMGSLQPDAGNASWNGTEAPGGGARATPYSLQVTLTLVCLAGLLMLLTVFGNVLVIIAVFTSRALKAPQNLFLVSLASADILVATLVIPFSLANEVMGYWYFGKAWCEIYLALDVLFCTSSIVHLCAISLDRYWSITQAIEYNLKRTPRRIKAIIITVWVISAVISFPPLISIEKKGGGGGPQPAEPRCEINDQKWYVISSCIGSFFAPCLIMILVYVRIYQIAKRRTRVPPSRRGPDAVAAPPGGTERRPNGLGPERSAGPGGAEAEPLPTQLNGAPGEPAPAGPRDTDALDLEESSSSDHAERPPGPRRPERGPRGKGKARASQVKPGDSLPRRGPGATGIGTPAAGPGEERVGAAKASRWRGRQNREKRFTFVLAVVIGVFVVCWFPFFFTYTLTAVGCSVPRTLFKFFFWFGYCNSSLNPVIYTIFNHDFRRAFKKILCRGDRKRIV

SMILES: O=C1C(=Nc2cccc(C(F)(F)F)c2)c2ccccc2N1c1ccccc1 [Example 92, 1-PHENYL-3-[[3-(TRIFLUOROMETHYL)PHENYL]IMINO]-1,3-DIHYDRO-2H-INDOL-2-ONE]
- selectivity ratio hα2A (Ki hα2A / Ki hGAL3) [1]: >100
- selectivity ratio h5HT1D (Ki h5HT1D / Ki hGAL3) [2]: >100
- selectivity ratio hα2C (Ki hα2C / Ki hGAL3) [3]: >100
- responses of the uninjured (contralateral) left paw (thermal plantar) vs vehicle ([4]; 3, 10, 30 mg/kg i.p., any time point): No significant changes
- effect on withdrawal latency of the nerve-injured hind paw to the thermal plantar device ([4]; 3, 10 and 30 mg/kg i.p., approx. 40 and 100 min PD): no significant effect
- selectivity ratio h5HT1F (Ki h5HT1F / Ki hGAL3) [5]: >100
- selectivity ratio h5HT1B (Ki h5HT1B / Ki hGAL3) [6]: >100
- selectivity ratio rDA Uptk (Ki rDA Uptk / Ki hGAL3) [7]: >100
- selectivity ratio hα1B (Ki hα1B / Ki hGAL3) [8]: >100
- selectivity ratio hD4 (Ki hD4 / Ki hGAL3) [9]: >100
